From patent US9957271B2, “Substituted bicyclic aza-heterocycles and analogues as sirtuin modulators” (GlaxoSmithKline, LLC, priority 2012, dated 2018)

Target: T1, SIRT1 (Homo sapiens, UniProt Q96EB6)
T1 sequence (Q96EB6 1-747): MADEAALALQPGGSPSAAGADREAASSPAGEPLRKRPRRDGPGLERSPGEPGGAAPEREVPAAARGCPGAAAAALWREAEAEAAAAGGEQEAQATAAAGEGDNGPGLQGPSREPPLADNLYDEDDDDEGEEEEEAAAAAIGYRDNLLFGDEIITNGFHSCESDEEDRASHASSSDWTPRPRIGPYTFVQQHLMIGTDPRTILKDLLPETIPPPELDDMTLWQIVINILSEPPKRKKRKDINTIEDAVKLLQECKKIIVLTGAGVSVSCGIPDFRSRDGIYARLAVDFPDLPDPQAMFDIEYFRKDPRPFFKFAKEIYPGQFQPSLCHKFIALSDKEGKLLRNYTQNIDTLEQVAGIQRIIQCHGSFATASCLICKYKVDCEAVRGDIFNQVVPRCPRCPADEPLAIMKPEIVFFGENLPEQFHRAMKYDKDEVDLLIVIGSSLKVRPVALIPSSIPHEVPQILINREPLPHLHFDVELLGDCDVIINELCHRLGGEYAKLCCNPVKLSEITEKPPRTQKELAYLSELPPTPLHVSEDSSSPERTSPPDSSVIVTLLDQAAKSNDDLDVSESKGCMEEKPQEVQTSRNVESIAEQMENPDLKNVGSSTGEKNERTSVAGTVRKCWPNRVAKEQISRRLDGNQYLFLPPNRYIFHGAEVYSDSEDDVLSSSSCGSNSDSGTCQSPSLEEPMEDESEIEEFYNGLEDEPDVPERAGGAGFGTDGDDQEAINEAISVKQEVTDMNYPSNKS
Test: TAMRA based mass spectrometry assay of SIRT1 activity
Format: biochemical
Conditions: TAMRA peptide substrate; for TAMRA EC1.5 (μM): concentration of test compound giving 150% activation of SIRT1; for Emax: percent maximum fold activation of SIRT1, read-out: TAMRA % Fold Act
Text: Mass spectrometry based assays were used to identify modulators of SIRT1 activity. The TAMRA based assay utilized a peptide having 20 amino acid residues as follows: Ac-EE-K(biotin)-[…](Ac)NleSTEG-K(5TMR)-EE-NH2 (SEQ ID NO: 1), wherein K(Ac) is an acetylated lysine residue and Nle is a norleucine. The peptide was labeled with the fluorophore 5TMR (excitation 540 nm/emission 580 nm) at the C-terminus. The sequence of the peptide substrate was based on p53 with several modifications. In addition, the methionine residue naturally present in the sequence was replaced with the norleucine because the methionine may be susceptible to oxidation during synthesis and purification. The Trp based assay utilized a peptide having an amino acid residues as follows: Ac-R-H-K-K(Ac)-W-NH2 (SEQ ID NO: 2).
The TAMRA based mass spectrometry assay was conducted as follows: 0.5 μM peptide substrate and 120 μM βNAD^+ was incubated with 10 nM SIRT1 for 25 minutes at 25° C. in a reaction buffer (50 mM Tris-acetate pH 8, 137 mM NaCl, 2.7 mM KCl, 1 mM MgCl2, 5 mM DTT, 0.05% BSA). The SIRT1 protein was obtained by cloning the SirT1 gene into a T7-promoter containing vector, which was then transformed and expressed in BL21(DE3) bacterial cells. Test compound was added at varying concentrations to this reaction mixture and the resulting reactions were monitored. After the 25 minute incubation with SIRT1, 10 μL of 10% formic acid was added to stop the reaction. The resulting reactions were sealed and frozen for later mass spec analysis. Determination of the amount of deacetylated substrate peptide formed (or, alternatively, the amount of O-acetyl-ADP-ribose (OAADPR) generated) by the sirtuin-mediated NAD-dependent deacetylation reaction allowed for the precise measurement of relative SIRT1 activity in the presence of varying concentrations of the test compound versus control reactions lacking the test compound.
A control for inhibition of sirtuin activity was conducted by adding 1 μL of 500 mM nicotinamide as a negative control at the start of the reaction (e.g., permits determination of maximum sirtuin inhibition). A control for activation of sirtuin activity was conducted using 10 nM of sirtuin protein, with 1 μL of DMSO in place of compound, to determine the amount of deacetylation of the substrate at a given time point within the linear range of the assay. This time point was the same as that used for test compounds and, within the linear range, the endpoint represents a change in velocity.
For the above assay, SIRT1 protein was expressed and purified as follows. The SirT1 gene was cloned into a T7-promoter containing vector and transformed into BL21(DE3). The protein was expressed by induction with 1 mM IPTG as an N-terminal His-tag fusion protein at 18° C. overnight and harvested at 30,000×g. Cells were lysed with lysozyme in lysis buffer (50 mM Tris-HCl, 2 mM Tris[2-carboxyethyl]phosphine (TCEP), 10 μM ZnCl2, 200 mM NaCl) and further treated with sonication for […] for complete lysis. The protein was purified over a Ni-NTA column (Amersham) and fractions containing pure protein were pooled, concentrated and run over a sizing column (Sephadex S200 26/60 global). The peak containing soluble protein was collected and run on an Ion-exchange column (MonoQ). Gradient elution (200 mM-500 mM NaCl) yielded pure protein. This protein was concentrated and dialyzed against dialysis buffer (20 mM Tris-HCl, 2 mM TCEP) overnight. The protein was aliquoted and frozen at −80° C. until further use.

| TAMRA EC1.5 (μM) | Emax [%] | SMILES |
| --- | --- | --- |
| C (EC1.5>25 μM) | < 350 | Cc1ncccc1-c1ccc2ncc(C(=O)Nc3ccnc(N4CCC4)c3)n2n1 [Compound 63] |
| A (EC1.5<1 μM) | ≥ 350 | Cc1nc2ccc(-c3ccccc3C(F)F)nn2c1C(=O)Nc1ccnc(N2CCOCC2)c1 [Compound 72] |
| A (EC1.5<1 μM) | ≥ 350 | O=C(Nc1ccnc(OCC(O)CO)c1)c1cnc2ccc(-c3ccccc3C(F)(F)F)nn12 (stereo not drawn) [Compound 89] |
| B (EC1.5 1-25 μM) | < 350 | O=C(Nc1ccncc1)c1cnc2ccc(-c3ccccc3Cl)nn12 [Compound 94] |
| A (EC1.5<1 μM) | ≥ 350 | O=C(Nc1ccnc(N2CCC2)c1)c1cnc2ccc(-c3ccccc3Cl)nn12 [Compound 96] |
| B (EC1.5 1-25 μM) | ≥ 350 | Cc1cncc(NC(=O)c2cnc3ccc(-c4ccccc4C(F)(F)F)nn23)c1 [Compound 97] |
| A (EC1.5<1 μM) | ≥ 350 | Cc1cc(NC(=O)c2cnc3ccc(-c4ccccc4C(F)(F)F)nn23)cc(C)n1 [Compound 99] |
| A (EC1.5<1 μM) | ≥ 350 | O=C(Nc1ccncc1F)c1cnc2ccc(-c3ccccc3C(F)(F)F)nn12 [Compound 100] |
| B (EC1.5 1-25 μM) | < 350 | O=C(Nc1cccnc1)c1cnc2ccc(-c3ccccc3C(F)(F)F)nn12 [Compound 108] |
| B (EC1.5 1-25 μM) | < 350 | O=C(Nc1ncc(F)cc1F)c1cnc2ccc(-c3ccccc3C(F)(F)F)nn12 [Compound 111] |
| B (EC1.5 1-25 μM) | < 350 | O=C(Nc1ncco1)c1cnc2ccc(-c3ccccc3C(F)(F)F)nn12 [Compound 114] |
| C (EC1.5>25 μM) | < 350 | Cn1nccc1NC(=O)c1cnc2ccc(-c3ccccc3C(F)(F)F)nn12 [Compound 115] |
| B (EC1.5 1-25 μM) | < 350 | O=C(Nc1cccnc1)c1cnc2ccc(-c3ccccc3Cl)nn12 [Compound 118] |
| A (EC1.5<1 μM) | ≥ 350 | O=C(Nc1cnc2ccc(-c3ccccc3C(F)(F)F)nn12)c1ccnc(N2CCCC2)c1 [Compound 124] |
| B (EC1.5 1-25 μM) | < 350 | O=C(Nc1cccc(CN2CCOCC2)n1)c1cnc2ccc(-c3ccc(F)c(F)c3F)nn12 [Compound 127] |
| C (EC1.5>25 μM) | < 350 | O=C(Nc1ccccn1)c1cnc2ccc(-c3ccc(F)c(F)c3F)nn12 [Compound 129] |
| C (EC1.5>25 μM) | < 350 | O=C(Nc1ccnc(N2CCC2)c1)c1cnc2ccc(-c3ccc(F)c(F)c3F)nn12 [Compound 132] |
| A (EC1.5<1 μM) | ≥ 350 | O=C(Nc1cccc(CN2CCOCC2)n1)c1cnc2ccc(-c3ccccc3F)nn12 [Compound 135] |

Second part, the compound before the results:

| SMILES | TAMRA EC1.5 (μM) | Emax [%] |
| --- | --- | --- |
| Cc1nc(C)c(-c2ccc3ncc(C(=O)Nc4cccc(N5CCOCC5)n4)n3n2)s1 [Compound 65] | A (EC1.5<1 μM) | < 350 |
| O=C(Nc1cccc(N2CCCC2)n1)c1nnc2ccc(-c3ccccc3C(F)(F)F)nn12 [Compound 66] | A (EC1.5<1 μM) | ≥ 350 |
| O=C(Nc1cccc(N2CCOCC2)n1)c1nnc2ccc(-c3ccccc3C(F)(F)F)nn12 [Compound 67] | A (EC1.5<1 μM) | ≥ 350 |
| Cc1nc2ccc(-c3ccccc3C(F)(F)F)nn2c1C(=O)Nc1cccc(N2CCCC2)n1 [Compound 70] | A (EC1.5<1 μM) | ≥ 350 |
| O=C(Nc1cccc(N2CCC2)n1)c1nnc2ccc(-c3ccccc3C(F)(F)F)nn12 [Compound 73, N-(6-(azetidin-1-yl)pyridin-2-yl)-6-(2-(trifluoromethyl)phenyl)-[1,2,4]-triazolo[4,3-b]pyridazine-3-carboxamide] | A (EC1.5<1 μM) | < 350 |
| O=C(Nc1cc(OCC(O)CO)ccn1)c1cnc2ccc(-c3ccccc3C(F)(F)F)nn12 (stereo not drawn) [Compound 75, N-(4-(2,3-dihydroxypropoxy)pyridin-2-yl)-6-(2-(trifluoromethyl)phenyl)imidazo[1,2-b]pyridazine-3-carboxamide] | B (EC1.5 1-25 μM) | ≥ 350 |
| Cc1cc(OCC(O)CO)nc(NC(=O)c2cnc3ccc(-c4ccccc4C(F)(F)F)nn23)n1 (stereo not drawn) [Compound 76] | B (EC1.5 1-25 μM) | ≥ 350 |
| O=C(Nc1cccnn1)c1cnc2ccc(-c3ccccc3C(F)(F)F)nn12 [Compound 79] | B (EC1.5 1-25 μM) | ≥ 350 |
| O=C(Nc1cnc2ccc(-c3ccccc3C(F)(F)F)nn12)c1cccc(CN2CCOCC2)n1 [Compound 81] | A (EC1.5<1 μM) | ≥ 350 |
| O=C(Nc1cnc2ccc(-c3ccccc3C(F)(F)F)nn12)c1cccc(N2CCOCC2)n1 [Compound 82] | A (EC1.5<1 μM) | ≥ 350 |
| O=C(Nc1cnc2ccc(-c3ccccc3C(F)(F)F)nn12)c1ccccn1 [Compound 85] | A (EC1.5<1 μM) | ≥ 350 |
| O=C(Nc1cnc2ccc(-c3ccccc3C(F)(F)F)nn12)c1ccncc1 [Compound 87] | C (EC1.5>25 μM) | < 350 |
| O=C(Nc1cnc2ccc(-c3ccccc3C(F)(F)F)nn12)c1cnccn1 [Compound 88] | A (EC1.5<1 μM) | ≥ 350 |
| O=C(Nc1cnc2ccc(-c3ccccc3C(F)(F)F)nn12)c1ccncn1 [Compound 90] | A (EC1.5<1 μM) | ≥ 350 |
| Cn1ccnc1C(=O)Nc1cnc2ccc(-c3ccccc3C(F)(F)F)nn12 [Compound 91] | B (EC1.5 1-25 μM) | ≥ 350 |
| COc1cccc(NC(=O)c2cnc3ccc(-c4ccccc4C(F)(F)F)nn23)n1 [Compound 103] | A (EC1.5<1 μM) | ≥ 350 |
| O=C(Nc1cncnc1)c1cnc2ccc(-c3ccccc3C(F)(F)F)nn12 [Compound 106] | B (EC1.5 1-25 μM) | < 350 |
| Cc1cnc(NC(=O)c2cnc3ccc(-c4ccccc4C(F)(F)F)nn23)s1 [Compound 109] | A (EC1.5<1 μM) | ≥ 350 |
| O=C(Nc1ccccn1)c1cnc2ccc(-c3ccccc3Cl)nn12 [Compound 117] | B (EC1.5 1-25 μM) | < 350 |
| O=C(Nc1cnc2ccc(-c3ccccc3C(F)(F)F)nn12)c1ncccn1 [Compound 121] | A (EC1.5<1 μM) | ≥ 350 |
| Cc1cnc(C(=O)Nc2cnc3ccc(-c4ccccc4C(F)(F)F)nn23)s1 [Compound 123] | A (EC1.5<1 μM) | ≥ 350 |
